Key:
[1] = system: NRK49F cells; experiment: Collagen alignment assay in FITC-conjugated collagen gel; format: cell-based, rat; conditions: 10 ng/ml TGF-β1, 10 μM, 5 days
Method: (§1) FIG. 2A, FIG. 2B, FIG. 2C, FIG. 2D, FIG. 2E, FIG. 2F, FIG. 2G-1, and FIG. 2G-2 display how WRG-28 and Av suppress TGF-β1-induced fibroblasts activation and the differentiation of pericytes into myofibroblasts. […] Each bar represents the mean #SEM. […] The protein levels of collagen 1a1 and α-SMA were assessed using Western blot analysis under various conditions. […] Each bar represents mean±SEM. […] The images were acquired using a confocal microscope (Olympus, MPE). FIG. 2G-1 and FIG. 2G-2 display the measurement of angles between collagen fibers and the cell membrane, conducted using Image J. At least five different images from each condition were analyzed. Each bar represents mean±SEM. In all graphs, *, **, and *** represent p-value <0.05, 0.01, and 0.001, respectively. ‘ns’ denotes p-value >0.05, indicating no significant difference.
FITC-conjugated collagen was used to make collagen gel and cells were grown in the gel for 5 days. After that cells were fixed with 4% paraformaldehyde and phalloidin-TRICT was used as counterstaining in the evaluation of the cell body. The angles between fibers and cell membrane were measured by image J.
The alignment of the extracellular matrix (ECM) is a unique characteristic of myofibroblasts, altering the physical properties of the tissue microenvironment and posing a threat to tissue homeostasis during organ fibrosis. […]

[2] = system: rat hepatic stellate cells (HSC-T6); experiment: TGF-β1-induced activation of rat hepatic stellate cells (Western blot); format: cell-based; conditions: HSC-T6, 10 μM co-treatment, 24 hours
Method: Cells were co-treated with various compounds (10 μM) and TGF-β1 for 24 hours. Following this, cell lysates were harvested, and the protein expression was assessed by Western blot analysis. FIG. 3D depicts the examination of TGF-β1-induced fibronectin deposition and α-SMA expression in HCF treated with 10 μM of DMSO, BTP2, WRG-28, or Av through immunofluorescence staining. The images were captured using a confocal microscope, the Olympus FV-1000. FIG. 3E, FIG. 3F, and FIG. 3G illustrate the assessment of CRAC channel activity in HCF, MRC5, and rat HSC-T6. These cells were pretreated with 10 μM of BTP2, WRG-28, or Av for 45 min. The evaluation included measuring the second peak of each calcium wave and the rate of entry. […]
(§2) Cell lysates were harvested in RIPA buffer (150 mM NaCl, 1 mM EGTA, 50 mM Tris pH 7.4, 10% glycerol, 1% Triton X-100, 1% sodium deoxycholate, 0.1% SDS, and protease inhibitor cocktail) and collected from culture dish with cell scrapers. […] The protein expression levels were assessed by specific primary antibodies, including antibodies against phosphotyrosine (clone 4G10; Millipore), DDR2 (R&D), α-SMA (Sigma), Collagen 1a1 (Boster), E-cadherin (BD Biosciences), SGLT2 (Proteintech), NHE1 (Novus) and β-actin (Clone C4, Millipore), followed by incubating with secondary antibodies conjugated with HRP and detected by ECL kit (Thermo Scientific). […]

[3] = system: NRK49F cells; experiment: TGF-β1-induced activation of renal fibroblasts (Western blot); format: cell-based, rat; conditions: 10 μM, 24 hours
Method: as §1, with “In all graphs, *, **, and *** represent p-value <0.05, 0.01, and 0.001, respectively. ‘ns’ denotes p-value >0.05, indicating no significant difference.” left out
as §2

[4] = system: THP-1 derived macrophages; experiment: Cytokine secretion in macrophages (ELISA); format: cell-based, human; conditions: IFN-γ/LPS induction, culture medium
[5] = system: human cardiac fibroblast (HCF); experiment: TGF-β1-induced fibronectin deposition and α-SMA expression in HCF (immunofluorescence); format: cell-based; conditions: for TGF-β1-increased cell spreading area: 10 μM co-treatment; for expression of fibronectin and α-SMA induced by TGF-β1: 10 μM, immunofluorescence
Method: Cells were co-treated with various compounds (10 μM) and TGF-β1 for 24 hours. Following this, cell lysates were harvested, and the protein expression was assessed by Western blot analysis. FIG. 3D depicts the examination of TGF-β1-induced fibronectin deposition and α-SMA expression in HCF treated with 10 μM of DMSO, BTP2, WRG-28, or Av through immunofluorescence staining. The images were captured using a confocal microscope, the Olympus FV-1000. FIG. 3E, FIG. 3F, and FIG. 3G illustrate the assessment of CRAC channel activity in HCF, MRC5, and rat HSC-T6. These cells were pretreated with 10 μM of BTP2, WRG-28, or Av for 45 min. The evaluation included measuring the second peak of each calcium wave and the rate of entry. Each bar within the figure represents the mean value derived from 77 to 91 cells for HCF, 31 to 49 cells for MRC5, and 43 to 94 cells for HSC-T6. In all the graphs, *, **, and *** denote p-values of <0.05, 0.01, and 0.001, respectively.
In TGF-β1-induced cell differentiation, cells were seeded on a type I collagen-coated tissue culture dish and then treated with different compounds for 4 hours. Cells were then treated with 10 ng/ml TGF-β1 for another 24 hours before protein analysis or immunocytochemistry study.
Cells cultured on chamber slides were fixed with 4% paraformaldehyde for 10 minutes followed by a permeabilization step by incubating cells in 0.5% Triton X-100 in PBS for 5 minutes. Cells were then incubated in SuperBlock blocking buffer (Thermo Scientific) for 1 h at room temperature. The protein expression was detected by incubating cells with specific primary antibodies followed by incubating cells with secondary antibodies against mouse or rabbit IgG conjugated with Alexa-488 or -594 nm (Invitrogen), respectively. Hoechst 33258 (10 μg/ml) is used for nuclei staining. All images were visualized and taken by confocal microscopy (Olympus, FV-1000).
To assess the overall effects of WRG-28 and Av on TGF-1-induced fibroblast activation, human cardiac fibroblasts (HCF), human pulmonary fibroblasts (MRC5), and rat hepatic stellate cells (HSC-T6) were employed. The upregulation of α-SMA induced by TGF-β1 treatment was observed, but this effect was suppressed by the co-treatment with various compounds, including BTP2, WRG-28, and Av, across all tested cell (FIG. 3A, FIG. 3B, and FIG. 3C). The expression of fibronectin and α-SMA induced by TGF-β1 in HCF was examined, and once again, the treatment with BTP2, WRG-28, or Av suppressed this effect (FIG. 3D).

[6] = system: NRK49F cells; experiment: Collagen gel contraction assay; format: cell-based, rat; conditions: NRK49F in collagen gel, 10 ng/ml TGF-β1, 10 μM, 3 days, 8 hours after release
Method: as §1
The collagen gel was made by mixing 3 ml rat tail collagen (Corning), 1 ml 5.7×DMEM, 500 μl 2.5% NaHCO3, 1 ml 0.1 M HEPES, 100 μl 0.17 M CaCl2, 100 μl 1 N NaOH, and 4.3 ml culture medium containing 2×10^6 NRK49F cells. 2 ml medium with or without 10 ng/ml TGF-β1 was applied onto gel in each well of 6 well-plate and cells were incubated for 3 days. After that gels were released from the culture plate and the gel area was quantified by Image J. […]

Compound | TGF-β1-induced collagen alignment [1] | upregulation of α-SMA induced by TGF-β1 [2] | TGF-β1-induced upregulation of collagen 1a1 and α-SMA [3] | secretion of IL-2 in macrophages [4] | secretion of IL-6 in macrophages [4] | secretion of TNF-β in macrophages [4] | TGF-β1-increased cell spreading area [5] | expression of fibronectin and α-SMA induced by TGF-β1 [5] | gel shrinkage (relative gel area) upon TGF-β1 stimulation [6]
Cc1nnsc1C(=O)Nc1ccc(-n2nc(C(F)(F)F)cc2C(F)(F)F)cc1 [BTP2] | reduced | suppressed | significantly suppressed | significantly reduced | significantly reduced | significantly reduced | mitigated | suppressed | markedly reduced
CCNS(=O)(=O)c1ccc(COc2ccc3nc4ccc(=O)cc-4oc3c2)cc1 [WRG-28] | reduced | suppressed | significantly suppressed | significantly reduced | significantly reduced | significantly reduced | mitigated | suppressed | markedly reduced
